# Results taken from US20240024273A1, “TOPICAL ADMINISTRATION OF 2-(DIETHYLAMINO)ETHYL 2-(4-ISOBUTYLPHENYL)PROPRIONATE FOR TREATMENT OF DISEASES” (TECHFIELDS PHARMA CO., LTD., priority 2020, published 2024).
# Values joined by “and” are separate entries in the source; they are usually repeats but may differ in a detail not shown here. Identical values can stand only once.
# Tests used:
# [1] = tested on: osteoarthritis of the knee; test: Second Phase 2 study: WOMAC stiffness subscale score; type: in vivo, human
# Description: For subjects with bilateral knee pain, both knees will be treated, but the most symptomatic knee (ie, the most painful knee as measured by the Western Ontario and McMaster University Osteoarthritis Index [WOMAC® 3.1] pain subscale score at Screening) will be designated as the target knee for efficacy analyses. For subjects with unilateral knee pain, only the symptomatic (target) knee will be treated.
# The VAS version of the WOMAC will be used for the Primary and Secondary Efficacy Endpoints. Efficacy endpoints will be assessed at Screening and Baseline (Day 1) and at the Week 2, Week 4, Week 8, and Week 12/EOS visits.
# 4.9.2. Secondary Efficacy Endpoints: • 1. Change from Baseline in the WOMAC (VAS) pain subscale score for the target knee at 2, 8, and 12 weeks of treatment; • 2. Change from Baseline in the WOMAC (VAS) stiffness subscale scores for the target knee and WOMAC (VAS) functional ability subscale scores at 2, 4, 8, and 12 weeks of treatment; • 3. Change from Baseline in the overall WOMAC (VAS) score at 2, 4, 8, and 12 weeks of treatment; • 4. Subject's global assessment of disease status of the target knee at 2, 4, 8, and 12 weeks of treatment; • 5. Subject's global assessment of response to therapy of the target knee at 2, 4, 8, and 12 weeks of treatment; • 6. Amount of rescue medication (acetaminophen) consumed per day for target knee pain.
# The Secondary Efficacy Endpoints, change from Baseline in the WOMAC subscale scores for pain, stiffness, and functional ability, and overall WOMAC score at 2, 4, 8, and 12 weeks of treatment, will be analyzed using the same methods as for the Primary Efficacy Endpoint.
# [2] = tested on: Collagen II induced arthritis; test: Collagen II induced arthritis; type: in vivo, Lewis rats; conditions: 10, 30 and 90 mg/kg daily, topical
# [3] = tested on: osteoarthritis of the knee; test: Second Phase 2 study: Subject's pain Assessment Scores (SPA); type: in vivo, human; conditions: first 130 subjects
# Experimental: Subjects will record the following information in a Daily Diary starting at Screening: the amount of knee pain in the target knee while walking during the preceding 24 hours (using a 100 mm visual analog scale [VAS]), the times and number of sprays for each administration of study medication, the times when the subject washes his/her knees and/or takes a shower, the number of tablets of rescue medication taken that day and the times taken, the reason for taking the rescue medication (e.g., knee pain, headache, low back pain), any other concomitant medications taken that day, and any AEs occurring that day.
# [4] = 17.5 mg/knee BID, Week 12, first 130 subjects
# [5] = Week 12, 4.375 mg/knee BID (n = 23), first 130 subjects
# [6] = Week 12, 8.75 mg/knee BID (n = 24), first 130 subjects
# [7] = Week 12, 17.5 mg/knee BID (n = 19), first 130 subjects
# [8] = all subjects, 4.375 mg/knee BID, n = 49, Week 12
# [9] = all subjects, 8.75 mg/knee BID, n = 54, Week 12
# [10] = all subjects, 17.5 mg/knee BID, n = 52, Week 12
# [11] = Week 12, 4.375 mg/knee BID (n = 23)
# [12] = Week 12, 8.75 mg/knee BID (n = 24)
# [13] = Week 12, 17.5 mg/knee BID (n = 19)
smiles,measurement,setting,value
CCN(CC)CCOC(=O)C(C)c1ccc(CC(C)C)cc1 (centres unmarked) [2-(diethylamino)ethyl 2-(4-isobutylphenyl)propionate],"WOMAC stiffness, difference from oral ibuprofen",[1]; [4],−12.4 mm
same,"WOMAC stiffness, difference from placebo",[1]; [4],−19.1 mm
same,"WOMAC Joint Stiffness Subscale Score, Day 1, Avg.","[1]; Avg. of all patients (blinded), Low Dose (2 spray/knee, 8.75 mg/knee) Cohort, Day 1",64.2
same,"WOMAC Joint Stiffness Subscale Score, Week 2, Avg.","[1]; Avg. of all patients (blinded), Low Dose (2 spray/knee, 8.75 mg/knee) Cohort, Week 2",52.5
same,"WOMAC Joint Stiffness Subscale Score, Week 4, Avg.","[1]; Avg. of all patients (blinded), Low Dose (2 spray/knee, 8.75 mg/knee) Cohort, Week 4",45.7
same,"WOMAC Joint Stiffness Subscale Score, Week 8, Avg.","[1]; Avg. of all patients (blinded), Low Dose (2 spray/knee, 8.75 mg/knee) Cohort, Week 8",42.3
same,"WOMAC Joint Stiffness Subscale Score, Week 12, Avg.","[1]; Avg. of all patients (blinded), Low Dose (2 spray/knee, 8.75 mg/knee) Cohort, Week 12",41.8
same,"WOMAC Stiffness Subscale Scores, Baseline (LS Mean)","[1]; 4.375 mg/knee BID (n = 23), first 130 subjects",50.2 mm
same,"WOMAC Stiffness Subscale Scores, Baseline (LS Mean)","[1]; 8.75 mg/knee BID (n = 24), first 130 subjects",52.4 mm
same,"WOMAC Stiffness Subscale Scores, Baseline (LS Mean)","[1]; 17.5 mg/knee BID (n = 19), first 130 subjects",57.6 mm
same,"WOMAC Stiffness Subscale Scores, % of improvement from Oral Ibuprofen",[1]; [5],0.6%
same,"WOMAC Stiffness Subscale Scores, % of improvement from Placebo",[1]; [5],−9.7%
same,"WOMAC Stiffness Subscale Scores, % of improvement from baseline",[1]; [5],−35.9%
same,"WOMAC Stiffness Subscale Scores, Changes from Baseline (LS Mean)",[1]; [5],−18.0 mm
same,"WOMAC Stiffness Subscale Scores, Different from placebo (LS Mean)",[1]; [5],−4.0 mm
same,"WOMAC Stiffness Subscale Scores, Week 12 (LS Mean)",[1]; [5],32.2 mm
same,"WOMAC Stiffness Subscale Scores, % of improvement from Oral Ibuprofen",[1]; [6],−2.4%
same,"WOMAC Stiffness Subscale Scores, % of improvement from Placebo",[1]; [6],−12.7%
same,"WOMAC Stiffness Subscale Scores, % of improvement from baseline",[1]; [6],−38.9%
same,"WOMAC Stiffness Subscale Scores, Changes from Baseline (LS Mean)",[1]; [6],−20.4 mm
same,"WOMAC Stiffness Subscale Scores, Different from oral ibuprofen (LS Mean)",[1]; [6],0.2 mm
same,"WOMAC Stiffness Subscale Scores, Different from placebo (LS Mean)",[1]; [6],−6.4 mm
same,"WOMAC Stiffness Subscale Scores, Week 12 (LS Mean)",[1]; [6],32.0 mm
same,"WOMAC Stiffness Subscale Scores, % of improvement from Oral Ibuprofen",[1]; [7],−21.0%
same,"WOMAC Stiffness Subscale Scores, % of improvement from Placebo",[1]; [7],−31.3%
same,"WOMAC Stiffness Subscale Scores, % of improvement from baseline",[1]; [7],−57.5%
same,"WOMAC Stiffness Subscale Scores, Changes from Baseline (LS Mean)",[1]; [7],−33.1 mm
same,"WOMAC Stiffness Subscale Scores, Different from oral ibuprofen (LS Mean)",[1]; [7],−12.4 mm
same,"WOMAC Stiffness Subscale Scores, Different from placebo (LS Mean)",[1]; [7],−19.1 mm
same,"WOMAC Stiffness Subscale Scores, Week 12 (LS Mean)",[1]; [7],24.6 mm
same,"WOMAC Stiffness Subscale Scores, % of improvement from Oral Ibuprofen",[1]; [8],4.7%
same,"WOMAC Stiffness Subscale Scores, % of improvement from Placebo",[1]; [8],−2.2%
same,"WOMAC Stiffness Subscale Scores, % of improvement from baseline",[1]; [8],−34.6%
same,"WOMAC Stiffness Subscale Scores, Changes from Baseline (LS Mean)",[1]; [8],−16.9 mm
same,"WOMAC Stiffness Subscale Scores, Week 12 (LS Mean)",[1]; [8],31.9 mm
same,"WOMAC Stiffness Subscale Scores, % of improvement from Oral Ibuprofen",[1]; [9],−2.8%
same,"WOMAC Stiffness Subscale Scores, % of improvement from Placebo",[1]; [9],−9.7%
same,"WOMAC Stiffness Subscale Scores, % of improvement from baseline",[1]; [9],−42.1%
same,"WOMAC Stiffness Subscale Scores, Changes from Baseline (LS Mean)",[1]; [9],−23.3 mm
same,"WOMAC Stiffness Subscale Scores, Different from oral ibuprofen (LS Mean)",[1]; [9],−3.0 mm
same,"WOMAC Stiffness Subscale Scores, Different from placebo (LS Mean)",[1]; [9],−6.7 mm
same,"WOMAC Stiffness Subscale Scores, Week 12 (LS Mean)",[1]; [9],32.0 mm
same,"WOMAC Stiffness Subscale Scores, % of improvement from Oral Ibuprofen",[1]; [10],−8.0%
same,"WOMAC Stiffness Subscale Scores, % of improvement from Placebo",[1]; [10],−14.9%
same,"WOMAC Stiffness Subscale Scores, % of improvement from baseline",[1]; [10],−47.3%
same,"WOMAC Stiffness Subscale Scores, Changes from Baseline (LS Mean)",[1]; [10],−25.2 mm
same,"WOMAC Stiffness Subscale Scores, Different from oral ibuprofen (LS Mean)",[1]; [10],−4.9 mm
same,"WOMAC Stiffness Subscale Scores, Different from placebo (LS Mean)",[1]; [10],−8.6 mm
same,"WOMAC Stiffness Subscale Scores, Week 12 (LS Mean)",[1]; [10],28.1 mm
same,"WOMAC Joint Stiffness Subscale Score, Week 4","[1]; individual patient (blinded), Low Dose (2 spray/knee, 8.75 mg/knee) Cohort, Week 4",59.5 and 62
same,onset of the disease,[2],postponed the onset of the disease.
same,"SPA, difference from oral ibuprofen","[3]; 17.5 mg/knee BID, Week 12",−14.1 mm
same,"SPA, difference from placebo","[3]; 17.5 mg/knee BID, Week 12",−21.0 mm
same,"Subject’s pain Assessment Scores, Baseline (LS Mean)",[3]; 4.375 mg/knee BID (n = 23),59.7 mm
same,"Subject’s pain Assessment Scores, Baseline (LS Mean)",[3]; 8.75 mg/knee BID (n = 24),63.5 mm
same,"Subject’s pain Assessment Scores, Baseline (LS Mean)",[3]; 17.5 mg/knee BID (n = 19),68.6 mm
same,"Subject’s pain Assessment Scores, % of improvement from Oral Ibuprofen",[3]; [11],−2.3%
same,"Subject’s pain Assessment Scores, % of improvement from baseline",[3]; [11],−38.5%
same,"Subject’s pain Assessment Scores, % of improvement from placebo",[3]; [11],−9.3%
same,"Subject’s pain Assessment Scores, Changes from Baseline (LS Mean)",[3]; [11],−23.0 mm
same,"Subject’s pain Assessment Scores, Different from oral ibuprofen (LS Mean)",[3]; [11],2.8 mm
same,"Subject’s pain Assessment Scores, Different from placebo (LS Mean)",[3]; [11],−4.0 mm
same,"Subject’s pain Assessment Scores, Week 12 (LS Mean)",[3]; [11],36.7 mm
same,"Subject’s pain Assessment Scores, % of improvement from Oral Ibuprofen",[3]; [12],−10.4%
same,"Subject’s pain Assessment Scores, % of improvement from baseline",[3]; [12],−47.7%
same,"Subject’s pain Assessment Scores, % of improvement from placebo",[3]; [12],−18.5%
same,"Subject’s pain Assessment Scores, Changes from Baseline (LS Mean)",[3]; [12],−30.3 mm
same,"Subject’s pain Assessment Scores, Different from oral ibuprofen (LS Mean)",[3]; [12],−3.8 mm
same,"Subject’s pain Assessment Scores, Different from placebo (LS Mean)",[3]; [12],−11.4 mm
same,"Subject’s pain Assessment Scores, Week 12 (LS Mean)",[3]; [12],33.2 mm
same,"Subject’s pain Assessment Scores, % of improvement from Oral Ibuprofen",[3]; [13],−22.0%
same,"Subject’s pain Assessment Scores, % of improvement from baseline",[3]; [13],−58.2%
same,"Subject’s pain Assessment Scores, % of improvement from placebo",[3]; [13],−29.0%
same,"Subject’s pain Assessment Scores, Changes from Baseline (LS Mean)",[3]; [13],−39.9 mm
